From US12617831B2 (UNIVERSITE D'ANGERS, priority 2019, dated 2026) come the findings set out here.

In one test the test system is Murine MC3T3-E1 cells. Description: Collagen maturity assay in MC3T3-E1 cultures (Example 2). Type of test: cell-based. The settings on record: MC3T3-E1 cultures (FIGS. 5-7). The protocol:
At confluence, the propagation medium was replaced by the differentiation medium containing αMEM supplemented with 5% FBS, 5% bovine calf serum, 100 U/mL penicillin, 100 μg/mL streptomycin, 50 μg/ml ascorbic acid and various concentrations of analogues. This day was considered as day 1. The differentiation medium was replenished every two days. […] Cultures were rinsed at least six times with milliQ water, fixed in absolute ethanol, scrapped off the culture dish and transferred onto BaF2 windows where they were air-dried. Integrity of the collagen extracellular matrix was verified by comparing the obtained Fourier transform infrared spectrum with those of commercial collagen. Spectral analysis was performed using a Bruker Vertex 70 spectrometer (Bruker optics, Ettlingen, Germany) interfaced with a Bruker Hyperion 3000 infrared microscope equipped with a standard single element Mercury Cadmium Telluride (MCT) detector. Infrared spectra were recorded at a resolution of 4 cm^−1, with an average of 32 scans in transmission mode. Background spectral images were collected under identical conditions from the same BaF2 windows at the beginning and end of each experiment to ensure instrument stability. At least 20 spectra were acquired for each condition and analyzed with a lab-made routine script in Matlab R2016b (The Mathworks, Natick, MA).

In test [1] the test system is ovariectomy-induced bone loss in mice. Put plainly: Trabecular bone microarchitecture, fifth lumbar vertebra, ovariectomized mice. The settings on record: OVX mice, L5, once 100 μg/kg iv, vs vehicle. In kind it is in vivo. The protocol: At 16 weeks of age, ALZET osmotic pumps (model number 2006, Durect Corp., Cupertino, CA) filled with the below saline or peptide were implanted subcutaneously between the two scapula under general anesthesia in 32 mice. Successful filling of pumps was verified by weighting the pump before and after filling. At 20 weeks of age, ALZET osmotic pumps were replaced by similar pumps to ensure delivery for four new weeks. […] This dose and regimen of zoledronic acid was equivalent to the 5 mg infusion approved for the treatment of post-menopausal osteoporosis in humans. Analyses of vertebral bodies of the fifth lumbar vertebra (L5) were performed with a Nanotom nanotomograph (Phoenix, GE, USA) operated at 85 kV, 220 μA, 1000 ms integration time. The isotropic pixel size was fixed at 4 μm, the rotation step at 0.25° and exposure was done with a 0.1 mm copper filter. Each 3D reconstruction image dataset was binarized using global thresholding. Trabecular volume of interest was computerized on coronal sections of the L5 vertebral body. Trabecular VOI was spread over the entire vertebral body excluding the first and last 80 μm from the anterior and posterior cortical wall. All microCT/NanoCT parameters were determined according to guidelines and nomenclature proposed by the American Society for Bone and Mineral Research (Bouxsein et al., 2010).

For test [2] the test system is unchanged. Put plainly: Bone matrix composition by FTIRI at the femur midshaft, ovariectomized mice. In kind it is in vivo. The settings on record: OVX mice, cortical bone femur, once 100 μg/kg iv, vs vehicle. The protocol: At 16 weeks of age, ALZET osmotic pumps (model number 2006, Durect Corp., Cupertino, CA) filled with the below saline or peptide were implanted subcutaneously between the two scapula under general anesthesia in 32 mice. Successful filling of pumps was verified by weighting the pump before and after filling. At 20 weeks of age, ALZET osmotic pumps were replaced by similar pumps to ensure delivery for four new weeks. […] This dose and regimen of zoledronic acid was equivalent to the 5 mg infusion approved for the treatment of post-menopausal osteoporosis in humans. After three-point bending experiments, femurs were embedded undecalcified in pMMA at 4° C. One-micrometer cross-sectional sections of the midshaft femur were sandwiched between BaF2 optical windows and Fourier transform infrared imaging (FTIRI) assessment was performed in the posterior quadrant. FTIRI was performed with a vertex 70 spectrometer (Bruker, Ettlingen, Germany) interfaced with a Hyperion 3000 microscope and a focal plane array detector (64×64 pixels) covering a field of view of 180×180 μm. Nine field-of-view were stitched together to allow sufficient bone to be analyzed. Sections were scanned with a spectral resolution of 8 cm^-1 (spectral region 900-2000 cm^-1). Each spectrum was corrected for Mie scattering with the […]5 algorithm (kind gift of Prof Peter Gardner, University of Manchester, UK) prior to be subjected to pMMA subtraction. Evaluation of spectral images was done with a lab-made routine script in Matlab R2016b (The Mathworks, Natick, MA) as described in Aguado et al. (2017) Calcif Tissue Int 100:332-340. FTIR bone parameters ([…] (2012) Methods Mol Biol 816:517-525) calculated were: (1) phosphate/amide ratio (area of v1, v3 phosphate/area amide1); (2) acid phosphate content (intensity ratio 1127 cm^-1/1096 cm^-1) (Spevak et al. (2013) Calcif Tissue Int 92:418-428); (3) mineral crystallinity (intensity ratio 1030 cm^-1/1020 cm^-1), reflecting crystal size and perfection; […] (2001) J Bone Miner Res 16:893-900). For each of the compositional parameters, the mean and full width at half maximum of the pixel distribution (excluding the zero background values) were computed and represented as mean and heterogeneity.

As for `CSCC[C@H](NC(=O)[C@H](CC(=O)O)NC(=O)[C@H](CO)NC(=O)[C@@H](NC(=O)[C@H](Cc1ccccc1)NC(=O)[C@H](CO)NC(=O)CNC(=O)[C@H](CCC(=O)O)NC(=O)CNC(=O)[C@@H](N)Cc1c[nH]cn1)C(C)C)C(=O)N[C@@H](CO)C(=O)N[C@H](C(=O)N[C@H](C(=O)N[C@@H](CC(C)C)C(=O)N[C@@H](CC(=O)O)C(=O)N[C@@H](CCCCN)C(=O)N[C@@H](CC(C)C)C(=O)N[C@@H](C)C(=O)N[C@@H](C)C(=O)N[C@@H](CCCNC(=N)N)C(=O)N[C@@H](CC(=O)O)C(=O)N[C@@H](Cc1ccccc1)C(=O)N[C@H](C(=O)N[C@@H](CC(N)=O)C(=O)N[C@@H](Cc1c[nH]c2ccccc12)C(=O)N[C@@H](CC(C)C)C(=O)N[C@@H](CC(C)C)C(=O)N[C@@H](CCC(N)=O)C(=O)N[C@H](C(=O)N[C@@H](CCCCN)C(N)=O)[C@@H](C)O)C(C)C)C(C)C)C(C)C` [GL-0004], the “profile of collagen maturity versus concentration” value with Murine MC3T3-E1 cells is on record as “biphasic profile”.

For the compound `O=P(O)(O)C(O)(Cn1ccnc1)P(=O)(O)O` [zoledronic acid], in test [1], the “increase in trabecular bone mass (BV/TV)” value is on record as 15% and the “increase in trabecular number” value was found to be 12%. Also, the “augmentation of mineral crystallinity heterogeneity” value in test [2] turned out to be 21%.
